Entries after “also recorded” stand apart in the source; their conditions may differ.
Tests used:
Type in all cases: biochemical
[1] = system: human cardiac microsomes; test: Superoxide anion formation (SOD-inhibitable cytochrome c reduction) by deoxycholate-solubilized human heart microsomes with DOX, plus or minus taxanes; conditions: for increase of DOX-dependent superoxide anion formation (in words): 10 μM taxane with DOX
Procedure: (§1) 105,000 g pellets from human myocardium homogenates are solubilized with deoxycolate and reconstituted at the final concentration of 0.025 mg prot/ml with 10 μM DOX, 1-10 μM taxane, 0.1 mM NADPH, in 0.3 M NaCl, pH 7.0, 37° C.
(§2) Electron flow from NADPH cytochrome P-450 reductase to the quinone moiety of DOX is detected by monitoring NADPH oxidation. Redox coupling of the semiquinone with oxygen is detected by monitoring formation of the superoxide anion radical with the superoxide dismutase-inhibitable reduction of cytochrome c (25 μM). These assays are performed in a Hewlett Packard 8453A UV/VIS/NIR spectrometer equipped with computer-assisted corrections for scatter and turbidity.

[2] = system: human cardiac cytosol; test: Reconstitution of DOX metabolism and DOXol formation, plus or minus taxanes, in human cardiac cytosol; conditions: for stimulation of DOXol formation (in words): [4Fe-4S]-depleted cytosol, DOX 25 μM, taxanes 1-50 μM, 4 h, FIG. 3; for doxorubicinol formation from DOX: taxane 1 μM, DOX without taxane 0.46±0.04, n=3, P<0.05
Procedure: (§3) Human myocardium is obtained from patients undergoing aorto-coronary bypass grafting. All samples were routinely disposed of by the surgeons from the lateral aspect of excluded right atrium during cannulation procedures for cardio-pulmonary by-pass. After storage at −80° C., pools of 15-20 samples are processed for cytosol preparation by sequential homogenization, ultracentrifugation and overnight 65% ammonium sulfate precipitation of 105,000 g supernatants. Next, cytosol is dialyzed against 100 mM Tris HCl-40 mM KCl, pH 8.9, diluted to 3 mg protein/ml with the same buffer, and incubated for 15 minutes at room temperature with 100 mM dithiothreitol to promote non-denaturing disassembly of the [4Fe-4S] cluster of cytoplasmic aconitase. This treatment is necessary as reactions of DOXol with [4Fe-4S] clusters would convert this metabolite back to DOX. Sizable amounts of DOXol would therefore go undetected if they reacted with [4Fe-4S] clusters prior to their assay. Unreacted dithiothreitol was eventually removed by sequential gel filtration on (1.5×10 cm) Sepharose 6B columns, protein reprecipitation with 65% ammonium sulfate, and extensive dialysis against 0.3 M NaCl, pH 7.0. Doxorubicin metabolism was reconstituted in 0.5 ml incubations containing cytosol (0.15 mg protein), NADPH (100 μM) and DOX (25 μM), in 0.3 M NaCl (pH 7.0) 37° C. Where indicated ethanol-dissolved taxanes (1-50 μM) were included. Aliquots of taxane-free ethanol (5 μl) were included as appropriate to adjust the final volume to 10 μl in all incubations. After 4 h DOX and DOXol were extracted with 2 ml of CHCl3/CH3OH (1:1) and separated by previously validated two-dimensional TLC on (20×20 cm) […] F524 Silica Gel Plates, using CHCl3/CH3OH/CH3COOH/H2O (80:20:14:6) as mobile phase in either dimension. Doxorubicinol was identified by cochromatography with (S)-DOXol from Streptomyces peucetius or (S) (R)-DOXol purified after NaBH4 reduction of DOX. Where indicated incubations were prepared by replacing DOX with DOX aglycone and by measuring formation of DOXol aglycone. The latter was separated from DOX aglycone by using CHCl3/CH3OH/CH3COOH (100:2:5) and CH3COOC2H5—CH3CH2OH—CH3COOH—H2O (80:10:5:5) in the first and second dimension, respectively. DOX aglycone was purified after thermoacid hydrolysis of DOX.

[3] = system: human cardiac cytosol; test: Conversion of DOX aglycone into DOXol aglycone, plus or minus taxanes, in human cardiac cytosol; conditions: for stimulation of conversion of DOX aglycone into DOXol aglycone (in words): human cardiac cytosol, FIG. 4; for doxorubicinolone formation from doxorubicinone: taxane 1 μM, without taxane 0.8±0.1, n=3, P<0.05
Procedure: as §3

[4] = system: human cardiac microsomes; test: NADPH oxidation by deoxycholate-solubilized human heart microsomes incubated with DOX, plus or minus taxanes; conditions: 10 μM DOX, 1-10 μM taxane; FIG. 5
Procedure: as §1, §2

COc1cccc2c1C(=O)c1c(O)c3c(c(O)c1C2=O)C[C@@](O)(C(=O)CO)C[C@@H]3O[C@H]1C[C@H](N)[C@H](O)[C@H](C)O1 [DOX, doxorubicin]
effect of DOX on superoxide anion formation (in words) ([1]; DOX without taxane, FIG. 6): enhances; also recorded: able to enhance

COC(=O)O[C@@]12CO[C@@H]1C[C@H](O)[C@@]1(C)C(=O)[C@H](OC(C)=O)C3=C(C)[C@@H](OC(=O)[C@H](O)[C@@H](NC(=O)c4ccccc4)c4ccccc4)C[C@@](O)([C@@H](OC(=O)c4ccccc4)[C@H]21)C3(C)C [4-desacetyl-4-methylcarbonate taxol]
stimulation of DOXol formation (in words) [2]: did not stimulate; also recorded: did not increase | stimulation of conversion of DOX aglycone into DOXol aglycone (in words) [3]: failed to stimulate; also recorded: did not increase; also recorded: has not been found to stimulate | stimulation of NADPH oxidation in the presence of DOX (in words) [4]: stimulated this oxidation only at the highest levels tested; also recorded: stimulated NADPH oxidation only at the highest concentration tested, although this was not statistically significant | increase of DOX-dependent superoxide anion formation (in words) ([1]; FIG. 6): did not increase; also recorded: did not afford any significant stimulation

CC(=O)O[C@@]12CO[C@@H]1C[C@H](O)[C@@]1(C)C(=O)[C@H](O)C3=C(C)[C@@H](OC(=O)[C@H](O)[C@@H](NC(=O)OC(C)(C)C)c4ccccc4)C[C@@](O)([C@@H](OC(=O)c4ccccc4)[C@H]21)C3(C)C [DCT, docetaxel]
stimulation of DOXol formation (in words) [2]: stimulate | doxorubicinol formation from DOX [2]: 1.2±0.2 nmol/mg prot./4h | stimulation of conversion of DOX aglycone into DOXol aglycone (in words) [3]: able to stimulate | doxorubicinolone formation from doxorubicinone [3]: 1.3±0.2 nmol/mg prot./4h | stimulation of NADPH oxidation in the presence of DOX (in words) [4]: able to stimulate | increase of DOX-dependent superoxide anion formation (in words) ([1]; FIG. 6): significant increase

CC(=O)O[C@H]1C(=O)[C@@]2(C)[C@H]([C@H](OC(=O)c3ccccc3)[C@]3(O)C[C@H](OC(=O)[C@H](O)[C@@H](NC(=O)c4ccccc4)c4ccccc4)C(C)=C1C3(C)C)[C@]1(OC(C)=O)CO[C@@H]1C[C@@H]2O [PTX, paclitaxel]
stimulation of DOXol formation (in words) [2]: stimulate | doxorubicinol formation from DOX [2]: 1.1±0.2 nmol/mg prot./4h | stimulation of conversion of DOX aglycone into DOXol aglycone (in words) [3]: able to stimulate | doxorubicinolone formation from doxorubicinone [3]: 1.4±0.2 nmol/mg prot./4h | stimulation of NADPH oxidation in the presence of DOX (in words) [4]: able to stimulate | increase of DOX-dependent superoxide anion formation (in words) ([1]; FIG. 6): significant increase | generation of superoxide anion radicals in microsomal fractions ([1]; taxane 10 μM, DOX without taxane 1.6±0.1, n=4-10, P<0.05): 2.2±0.2 nmol/mg prot./min

— patent US6927211B2, “Method for reducing toxicity of combined chemotherapies” (Bristol-Myers Squibb Company, priority 2000, dated 2005)
